Source: US12540165B2, “HSP fusion protein with anti-chemorepellant agent for treatment of cancer” (The General Hospital Corporation, priority 2016, dated 2026)
Where two headings read alike, the source gives them in different places.

Assays:
[1] = test system: 40L mouse mesothelioma cell line; test: Immune profiling by flow cytometry of spleens and tumors of 40L tumor-bearing mice; type: in vivo, C57BL/6 mice
[2] = test system: Luc-40L mesothelioma cancer cells; test: Luc-40L mesothelioma model, survival (Example 4); type: in vivo, C57BL/6 mice; conditions: compared to saline, VIC-008 20 μg, AMD3100 1 μg/g body weight, once a week for four weeks
[3] = test system: 40L mouse mesothelioma cell line; test: Ex vivo restimulation with recombinant mesothelin, intracellular IFN-γ in CD8+ T cells, 40L mice; set-up: species or system C57BL/6 mice; conditions: splenic CD8+ T cells, compared to saline
[4] = test system: AE17 mouse mesothelioma cell line; test: Ex vivo restimulation with recombinant mesothelin, intracellular IFN-γ in CD8+ T cells, AE17 mice; set-up: species or system C57BL/6 mice; conditions: compared to saline
Foxp3^+ Treg cells = conditions: AMD3100 5 μg/ml, 24 hours
[5] = test system: Luc-AE17 mesothelioma cancer cells; test: Luc-AE17 mesothelioma model, survival (Example 4); type: in vivo, C57BL/6 mice; conditions: compared to saline, VIC-008 20 μg, AMD3100 1 μg/g body weight, once a week for four weeks
[6] = test system: AE17 mouse mesothelioma cell line; test: Immune profiling by flow cytometry of spleens, lymph nodes and tumors of AE17 tumor-bearing mice; type: in vivo, C57BL/6 mice
[7] = test system: 40L mouse mesothelioma cell line; test: 40L intraperitoneal malignant mesothelioma model: tumor weight and survival (Example 5); type: in vivo, C57BL/6 mice; conditions: compared to saline
[8] = test system: AE17 mouse mesothelioma cell line; test: AE17 intraperitoneal malignant mesothelioma model: tumor weight and survival (Example 5); type: in vivo, C57BL/6 mice; conditions: compared to saline
[9] = spleens, 40L, compared to saline
[10] = tumors, 40L, compared to saline
[11] = lymph nodes, AE17, compared to saline
[12] = spleens, AE17, compared to saline
[13] = tumors, AE17, compared to saline

c1cc(CN2CCCNCCNCCCNCC2)ccc1CN1CCCNCCNCCCNCC1 [AMD3100, 1,1′-[1,4-phenylenebis(methylene)]bis[1,4,8,11-tetraazacyclotetradecane]]
proportions of Treg cells ([1]; spleens of 40L tumor-bearing mice): did not alter | proportion of CD8+ T cells in total live cells [1, 9]: did not increase | proportion of PD-1-expressing CD8+ T cells [1, 9]: significantly fewer | IL-2+ CD40L+ cells in the Foxp3+ CD25− Treg population ([1]; tumors of 40L mice): significantly more cells | ratio of CD25− cells to CD25+ cells within the Foxp3+ population ([1]; tumors of 40L mice): significantly increased | proportion of CD8+ T cells in total live cells [1, 10]: did not increase | proportion of PD-1-expressing CD8+ T cells [1, 10]: significantly fewer | proportions of Treg [1, 10]: significantly decreased | ratio of CD8+ T cells to Treg [1, 10]: increased | survival of tumor-bearing mice [2]: slight effect on survival | mesothelin-specific IFN-γ expression in CD8+ T cells [3]: did not enhance | mesothelin-specific IFN-γ expression in CD8+ T cells ([4]; lymph node CD8+ T cells): did not enhance | mesothelin-specific IFN-γ expression in CD8+ T cells ([4]; splenic CD8+ T cells): did not enhance | ratio of the proportion of CD25− cells to CD25+ cells in the Foxp3+ CD4+ population (Foxp3^+ Treg cells; no anti-CD3/CD28 stimulation): did not change | conversion of Foxp3+ CD25− Treg into IL-2+ CD40L+ cells (Foxp3^+ Treg cells; with anti-CD3/CD28 stimulation): converted more | ratio of the proportion of CD25− cells to CD25+ cells in the Foxp3+ CD4+ population (Foxp3^+ Treg cells; with anti-CD3/CD28 stimulation): significantly increased | survival of tumor-bearing mice [5]: slight effect on survival | IL-2+ CD40L+ cells in the Foxp3+ CD25− Treg population ([6]; lymph nodes of AE17 mice): significantly more cells | cell ratio of CD8+ T cells to Treg cells [6, 11]: significantly increased | proportion of CD8+ T cells in total live cells [6, 11]: did not increase | proportion of PD-1-expressing CD8+ T cells [6, 11]: significantly fewer | ratio of CD25− cells to CD25+ cells within the Foxp3+ population ([6]; lymph nodes, AE17 model): significantly increased | Treg in the lymph nodes ([6]; lymph nodes, AE17 tumor-bearing mice): generally reduced | proportion of CD8+ T cells in total live cells [6, 12]: did not increase | proportion of PD-1-expressing CD8+ T cells [6, 12]: significantly fewer | proportion of CD8+ T cells in total live cells [6, 13]: did not increase | proportion of PD-1-expressing CD8+ T cells [6, 13]: significantly fewer | proportions of Treg [6, 13]: significantly decreased | ratio of CD8+ T cells to Treg [6, 13]: increased | animal survival [7]: only modest benefit to survival | animal survival [8]: only modest benefit to survival
